Reference: patent US11713306B2, “5-substituted difluoropiperidine compounds with blood-brain barrier penetrable capability” (Wayshine Biopharm Holding Limited, priority 2018, dated 2023)

Target: FYN (Homo sapiens (Human), UniProt P06241)
Test: Kinase inhibition assay (Caliper, FAM-labeled peptide substrate)
Type: biochemical
Method: 2.5 times of the kinase (VEGFR2 or EGFR or FYN) buffer solution was added to the compound diluted in equal concentration in the 384-well plate and incubated at 22-27° C. for 10 minutes, then 2.5 times of the FAM-labeled peptide substrate and ATP buffer solution were added therein and incubated at 28° C., and then the stop buffer solution was added to stop the reaction. The data was read by Caliper and the following formula was used to calculate the IC50 inhibition: Percent inhibition=(max-conversion)/(max-min)*100. Staurosporine was used as a control. In kinase inhibition assays, some of the compounds of the present invention are effective in inhibiting VEGFR2/FYN/EGFR, so they have the potential for treating or preventing cancer or central nervous system diseases (Table 1).

Sequence of FYN (P06241 whole entry): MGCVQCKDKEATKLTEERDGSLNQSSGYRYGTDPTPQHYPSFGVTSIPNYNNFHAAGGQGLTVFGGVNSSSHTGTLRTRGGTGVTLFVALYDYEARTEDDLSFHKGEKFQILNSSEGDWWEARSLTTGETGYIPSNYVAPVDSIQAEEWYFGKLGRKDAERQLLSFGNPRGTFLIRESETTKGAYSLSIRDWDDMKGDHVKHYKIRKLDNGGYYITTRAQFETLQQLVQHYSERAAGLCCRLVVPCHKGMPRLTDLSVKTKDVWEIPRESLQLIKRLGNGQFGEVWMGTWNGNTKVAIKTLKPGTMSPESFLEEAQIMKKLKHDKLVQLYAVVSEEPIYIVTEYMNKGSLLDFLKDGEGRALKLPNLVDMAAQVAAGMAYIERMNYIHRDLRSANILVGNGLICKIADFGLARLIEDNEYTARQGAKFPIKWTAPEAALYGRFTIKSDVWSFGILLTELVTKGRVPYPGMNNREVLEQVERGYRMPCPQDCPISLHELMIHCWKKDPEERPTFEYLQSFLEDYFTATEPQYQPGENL

IC50, < 100 nM:
COc1cc(OC2CCN(C)CC2(F)F)c2c(Nc3c(Cl)ccc4c3OCO4)ncnc2c1 (racemic) [Compound 4, (R/S)—N-(5-chlorobenzo[d][1,3]dioxolcyclopenten-4-yl)-5-((3,3-difluoro-1-methylpiperidin-4-yl)oxy)-7-methoxyquinazolin-4-amine]
COc1cc(OC2CCN(C)CC2(F)F)c2c(Nc3c(F)ccc4c3OCO4)ncnc2c1 (racemic) [Compound 5, (R/S)—N-(5-fluorobenzo[d][1,3]dioxolcyclopenten-4-yl)-5-((3,3-difluoro-1-methylpiperidin-4-yl)oxy)-7-methoxyquinazolin-4-amine]
CCOc1cc(OC2CCN(C)CC2(F)F)c2c(Nc3c(F)ccc4c3OCO4)ncnc2c1 (racemic) [Compound 6, (R/S)—N-(5-fluorobenzo[d][1,3]dioxolcyclopenten-4-yl)-5-((3,3-difluoro-1-methylpiperidin-4-yl)oxy)-7-ethoxyquinazolin-4-amine]
COc1cc(OC2CCN(C)CC2(F)F)c2c(Nc3c(F)ccc4c3OCO4)ncnc2c1 (racemic) [Compound 7, (R/S)—N-(5-fluorobenzo[d][1,3]dioxolcyclopenten-4-yl)-5-((3,3-difluoro-1-methylpiperidin-4-yl)oxy)-7-deuterated methoxyquinazolin-4-amine]
COc1cc(OC2CCN(C)CC2(F)F)c2c(Nc3cc(OC)c(Cl)cc3F)ncnc2c1 (racemic) [Compound 8, (R/S)—N-(4-chloro-2-fluoro-5-methoxyphenyl)-5-((3,3-difluoro-1-methylpiperidin-4-yl)oxy)-7-methoxyquinazolin-4-amine]
CCOc1cc(OC2CCN(C)CC2(F)F)c2c(Nc3c(Cl)ccc4c3OCO4)ncnc2c1 (racemic) [Compound 9, (R/S)—N-(5-chlorobenzo[d][1,3]dioxolcyclopenten-4-yl)-5-((3,3-difluoro-1-methylpiperidin-4-yl)oxy)-7-ethoxyquinazolin-4-amine]
CCN1CCC(Oc2cc(OC)cc3ncnc(Nc4c(F)ccc5c4OCO5)c23)C(F)(F)C1 (racemic) [Compound 10, (R/S)-5-((1-ethyl-3,3-difluoropiperidin-4-yl)oxy)-N-(5-fluorobenzo[d] [1,3]dioxolcyclopenten-4-yl)-7-methoxyquinazolin-4-amine]
COc1cc(OC2CCN(C)CC2(F)F)c2c(Nc3c(Cl)ccc4c3OCO4)ncnc2c1 (racemic) [Compound 12, (R/S)—N-(5-chlorobenzo[d] [1,3]dioxolcyclopenten-4-yl)-5-((3,3-difluoro-1-methylpiperidin-4-yl)oxy)-7-deuterated methoxyquinazolin-4-amine]
COc1cc(OC2CCN(C3COC3)CC2(F)F)c2c(Nc3c(F)ccc4c3OCO4)ncnc2c1 (racemic) [Compound 13, (R/S)-5-((3,3-difluoro-1-(oxetane-3-yl)piperidin-4-yl)oxy)-N-(5-fluorobenzo[d][1,3]dioxolcyclopenten-4-yl)-7-methoxyquinazolin-4-amine]
COc1cc(OC2CCN(C3COC3)CC2(F)F)c2c(Nc3c(Cl)ccc4c3OCO4)ncnc2c1 (racemic) [Compound 14, (R/S)-5-((3,3-difluoro-1-(oxetane-3-yl)piperidin-4-yl)oxy)-N-(5-chlorobenzo[d][1,3]dioxolcyclopenten-4-yl)-7-methoxyquinazolin-4-amine]
COc1cc(OC2CCN(C(C)C)CC2(F)F)c2c(Nc3c(F)ccc4c3OCO4)ncnc2c1 (racemic) [Compound 15, (R/S)-5-((3,3-difluoro-1-isopropylpiperidin-4-yl)oxy)-N-(5-fluorobenzo[d][1,3]dioxolcyclopenten-4-yl)-7-methoxyquinazolin-4-amine]
COc1cc(O[C@@H]2CCN(C)CC2(F)F)c2c(Nc3c(Cl)ccc4c3OCO4)ncnc2c1 [Compound 20, (R)—N-(5-chlorobenzo[d][1,3]dioxolcyclopenten-4-yl)-5-((3,3-difluoro-1-methylpiperidin-4-yl)oxy)-7-methoxyquinazolin-4-amine]
COc1cc(O[C@@H]2CCN(C)CC2(F)F)c2c(Nc3c(F)ccc4c3OCO4)ncnc2c1 [Compound 21, (R)—N-(5-fluorobenzo[d][1,3]dioxolcyclopenten-4-yl)-5-((3,3-difluoro-1-methylpiperidin-4-yl)oxy)-7-methoxyquinazolin-4-amine]
CCOc1cc(O[C@@H]2CCN(C)CC2(F)F)c2c(Nc3c(F)ccc4c3OCO4)ncnc2c1 [Compound 22, (R)—N-(5-fluorobenzo[d][1,3]dioxolcyclopenten-4-yl)-5-((3,3-difluoro-1-methylpiperidin-4-yl)oxy)-7-ethoxyquinazolin-4-amine]
COc1cc(O[C@@H]2CCN(C)CC2(F)F)c2c(Nc3c(F)ccc4c3OCO4)ncnc2c1 [Compound 23, (R)—N-(5-fluorobenzo[d][1,3]dioxolcyclopenten-4-yl)-5-((3,3-difluoro-1-methylpiperidin-4-yl)oxy)-7-deuterated methoxyquinazolin-4-amine]
COc1cc(O[C@@H]2CCN(C)CC2(F)F)c2c(Nc3cc(OC)c(Cl)cc3F)ncnc2c1 [Compound 24, (R)—N-(4-chloro-2-fluoro-5-methoxyphenyl)-5-((3,3-difluoro-1-methylpiperidin-4-yl)oxy)-7-methoxyquinazolin-4-amine]
CCOc1cc(O[C@@H]2CCN(C)CC2(F)F)c2c(Nc3c(Cl)ccc4c3OCO4)ncnc2c1 [Compound 25, (R)—N-(5-chlorobenzo[d][1,3]dioxolcyclopenten-4-yl)-5-((3,3-difluoro-1-methylpiperidin-4-yl)oxy)-7-ethoxyquinazolin-4-amine]
CCN1CC[C@@H](Oc2cc(OC)cc3ncnc(Nc4c(F)ccc5c4OCO5)c23)C(F)(F)C1 [Compound 26, (R)-5-((1-ethyl-3,3-difluoropiperidin-4-yl)oxy)-N-(5-fluorobenzo[d] [1,3]dioxolcyclopenten-4-yl)-7-methoxyquinazolin-4-amine]
COc1cc(O[C@@H]2CCN(C)CC2(F)F)c2c(Nc3c(Cl)ccc4c3OCO4)ncnc2c1 [Compound 28, (R)—N-(5-chlorobenzo[d] [1,3]dioxolcyclopenten-4-yl)-5-((3,3-difluoro-1-methylpiperidin-4-yl)oxy)-7-deuterated methoxyquinazolin-4-amine]
COc1cc(O[C@@H]2CCN(C3COC3)CC2(F)F)c2c(Nc3c(F)ccc4c3OCO4)ncnc2c1 [Compound 29, (R)-5-((3,3-difluoro-1-(oxetane-3-yl)piperidin-4-yl)oxy)-N-(5-fluorobenzo[d] [1,3]dioxolcyclopenten-4-yl)-7-methoxyquinazolin-4-amine]
COc1cc(O[C@@H]2CCN(C3COC3)CC2(F)F)c2c(Nc3c(Cl)ccc4c3OCO4)ncnc2c1 [Compound 30, (R)-5-((3,3-difluoro-1-(oxetane-3-yl)piperidin-4-yl)oxy)-N-(5-chlorobenzo[d][1,3]dioxolcyclopenten-4-yl)-7-methoxyquinazolin-4-amine]
COc1cc(O[C@@H]2CCN(C(C)C)CC2(F)F)c2c(Nc3c(F)ccc4c3OCO4)ncnc2c1 [Compound 31, (R)-5-((3,3-difluoro-1-isopropylpiperidin-4-yl)oxy)-N-(5-fluorobenzo[d] [1,3]dioxolcyclopenten-4-yl)-7-methoxyquinazolin-4-amine]
COc1cc(O[C@H]2CCN(C)CC2(F)F)c2c(Nc3c(Cl)ccc4c3OCO4)ncnc2c1 [Compound 36, (S)—N-(5-chlorobenzo[d][1,3]dioxolcyclopenten-4-yl)-5-((3,3-difluoro-1-methylpiperidin-4-yl)oxy)-7-methoxyquinazolin-4-amine]
COc1cc(O[C@H]2CCN(C)CC2(F)F)c2c(Nc3c(F)ccc4c3OCO4)ncnc2c1 [Compound 37, (S)—N-(5-fluorobenzo[d][1,3]dioxolcyclopenten-4-yl)-5-((3,3-difluoro-1-methylpiperidin-4-yl)oxy)-7-methoxyquinazolin-4-amine]
CCOc1cc(O[C@H]2CCN(C)CC2(F)F)c2c(Nc3c(F)ccc4c3OCO4)ncnc2c1 [Compound 38, (S)—N-(5-fluorobenzo[d][1,3]dioxolcyclopenten-4-yl)-5-((3,3-difluoro-1-methylpiperidin-4-yl)oxy)-7-ethoxyquinazolin-4-amine]
COc1cc(O[C@H]2CCN(C)CC2(F)F)c2c(Nc3c(F)ccc4c3OCO4)ncnc2c1 [Compound 39, (S)—N-(5-fluorobenzo[d][1,3]dioxolcyclopenten-4-yl)-5-((3,3-difluoro-1-methylpiperidin-4-yl)oxy)-7-deuterated methoxyquinazolin-4-amine]
COc1cc(O[C@H]2CCN(C)CC2(F)F)c2c(Nc3cc(OC)c(Cl)cc3F)ncnc2c1 [Compound 40, (S)—N-(4-chloro-2-fluoro-5-methoxyphenyl)-5-((3,3-difluoro-1-methylpiperidin-4-yl)oxy)-7-methoxyquinazolin-4-amine]
CCOc1cc(O[C@H]2CCN(C)CC2(F)F)c2c(Nc3c(Cl)ccc4c3OCO4)ncnc2c1 [Compound 41, (S)—N-(5-chlorobenzo[d][1,3]dioxolcyclopenten-4-yl)-5-((3,3-difluoro-1-methylpiperidin-4-yl)oxy)-7-ethoxyquinazolin-4-amine]
CCN1CC[C@H](Oc2cc(OC)cc3ncnc(Nc4c(F)ccc5c4OCO5)c23)C(F)(F)C1 [Compound 42, (S)-5-((1-ethyl-3,3-difluoropiperidin-4-yl)oxy)-N-(5-fluorobenzo[d] [1,3]dioxolcyclopenten-4-yl)-7-methoxyquinazolin-4-amine]
